Read-outs that look alike come from different tables or passages of the source.
What was measured:
breast tumors [1] = test: PET imaging of ER+ breast tumors in patients; format: in vivo, human; conditions: for SUV in lesion of patients responding poorly to tamoxifen therapy: 4/5 patients
[2] = Biodistribution in estradiol-primed or unprimed female Sprague-Dawley rats; format: in vivo, rat
Description: Four groups of rats (150-200 gm, N=4/group) were anesthetized with ketamine (10-15 mg/rat). […]. Tissue uptake of ^18 F-tracer was determined at 2 and 4 hours (h). To ascertain whether the ^18 F-tracer uptake was mediated by a receptor-process, one group of rats was given ^18 F-tracer without priming with estradiol; and another group of rats was given unlabeled estradiol (30 μg/rat) together with ^18 F-tracer. […].
The inventors first determined the in vivo tissue distribution of [^18 F-FTX] in rats. Specifically, four groups of female Sprague-Dawley rats (N=4/group, 200-250 gm; obtained from Harlan Inc., Indianapolis, Ind.) were anesthetized with ketamine (10-15 mg/rat). […]. The tissue distribution was studied at 2 hour and 4 hour intervals.

breast tumors [3] = test: PET imaging of ER+ breast tumors in patients; format: in vivo, human
Description: This example describes a ligand for imaging ER (+) breast tumors by positron emission tomography (PET) or single photon emission computed tomography (SPECT).
PET imaging was performed on three breast cancer patients (age 54±3) (ER+) with a positron camera (Positron Corporation, Houston, Tex.). Each patient was positioned supine in the scanner so that the detector rings would span the entire breast cancer region. A 20-min attenuation scan was performed with a 4 mCi [^68 Ge]-ring source prior to [^18 F]FTX. After each patient received 4 mCi of {^18 F]FTX, six consecutive 20 min scans were acquired. Serial transaxial images were performed. The tomograph has a field-of-view of 42 cm on transverse and 12 cm on coronal plans. The axial resolution on the reconstructed plan is 1.2 cm. […] The SUV value is generated using a dedicated computer.

[4] = Biodistribution in mammary tumor-bearing rats primed with estradiol; format: in vivo, rat; conditions: for tissue uptake at 1 h / tissue uptake at 3 h / tissue uptake at 6 h / tissue uptake at 24 h: rat, iv
Description: Female Fisher 344 rats (250-275 g) (Harlan, Inc., Indianapolis, Ind.) were inoculated with mammary tumor cells using the 13762 tumor cell line (s.c. 10^5 cells/rat). After 14 days, a tumor size of 1-2 cm was observed. For ^131 I-ITX studies, five groups of rats (N=3/group) were anesthetized with ketamine (10-15 mg/rat). […] In blocking studies, the fifth group of rats was given diethylstilbestrol (DES) (1.2 mg/rat) for 1 h, followed by 8.9 μCi of ^131 I-ITX; biodistribution was studied 6 h later. The tissues were collected at different time intervals. The tissues were weighted and counted for radioactivity. The percent of injected dose per gram of tissue weight was calculated.
[…]. The biodistribution studies were conducted at 1, 3, 6 and 24 h.

[5] = 2 h, blocked with estradiol 30 μg, listed as 18 Ftracer, 120 min
[6] = 2 h, blocked with estradiol 30 μg, listed as N,N-DIETHYL-[^18 F]FLUOROMETHYLTAMOXIFEN, 120 min
[7] = 2 h, estradiol-primed, listed as 18 Ftracer, 120 min
[8] = 2 h, not primed, listed as 18 Ftracer, 120 min
[9] = 2 h, not primed, listed as N,N-DIETHYL-[^18 F]FLUOROMETHYLTAMOXIFEN, 120 min
[10] = 4 h, estradiol-primed, listed as 18 Ftracer, 240 min

CCN(CC)CCOc1ccc(/C(=C(/CCC[18F])c2ccccc2)c2ccccc2)cc1 [[^18 F]FTX, (trans)[^18 F]Fluoromethyl-N,N-diethyltamoxifen]
SUV in lesion of patients responding poorly to tamoxifen therapy (breast tumors [1]; listed as 18 F-tamoxifen): < 2.0
SUV in lesion of patients responding poorly to tamoxifen therapy (breast tumors [1]; listed as [^18 f]fluorotamoxifen): less than 2.0
SUV (breast tumors [1]; patient 1, left breast): 1.6
SUV (breast tumors [1]; patient 1, spine): 6.2
SUV (breast tumors [1]; patient 1, sternum): 4.2
SUV (breast tumors [1]; patient 3, left breast): 2.6
SUV (breast tumors [1]; patient 4, right axilla): 1.3
SUV (breast tumors [1]; patient 5, lung): 3.3
SUV (breast tumors [1]; patient 6, left axilla): 2.9
SUV (breast tumors [1]; patient 7, skull): 0.9
SUV (breast tumors [1]; patient 8, neck): 2.4
SUV (breast tumors [1]; patient 9, scapula): 1.3
SUV (breast tumors [1]; patient 10, spine): 6.3
Blood uptake [2, 5]: 0.048 % OF INJECTED DOSE/GRAM OF TIS
Bone uptake [2, 5]: 0.576 % OF INJECTED DOSE/GRAM OF TIS
Intestine uptake [2, 5]: 0.742 % OF INJECTED DOSE/GRAM OF TIS
Liver uptake [2, 5]: 4.451 % OF INJECTED DOSE/GRAM OF TIS
Muscle uptake [2, 5]: 0.145 % OF INJECTED DOSE/GRAM OF TIS
Uterus uptake [2, 5]: 0.297 % OF INJECTED DOSE/GRAM OF TIS
Blood uptake [2, 6]: 0.048 % OF INJECTED DOSE/GRAM OF TISSUE WEIGHT
Bone uptake [2, 6]: 0.576 % OF INJECTED DOSE/GRAM OF TISSUE WEIGHT
Intestine uptake [2, 6]: 0.742 % OF INJECTED DOSE/GRAM OF TISSUE WEIGHT
Liver uptake [2, 6]: 4.451 % OF INJECTED DOSE/GRAM OF TISSUE WEIGHT
Muscle uptake [2, 6]: 0.145 % OF INJECTED DOSE/GRAM OF TISSUE WEIGHT
Uterus uptake [2, 6]: 0.297 % OF INJECTED DOSE/GRAM OF TISSUE WEIGHT
Blood uptake [2, 7]: 0.033 % OF INJECTED DOSE/GRAM OF TIS
Bone uptake [2, 7]: 0.653 % OF INJECTED DOSE/GRAM OF TIS
Intestine uptake [2, 7]: 0.917 % OF INJECTED DOSE/GRAM OF TIS
Kidney uptake [2, 7]: 0.742 % OF INJECTED DOSE/GRAM OF TIS
Liver uptake [2, 7]: 4.540 % OF INJECTED DOSE/GRAM OF TIS
Muscle uptake [2, 7]: 0.151 % OF INJECTED DOSE/GRAM OF TIS
Uterus uptake [2, 7]: 0.426 % OF INJECTED DOSE/GRAM OF TIS
Bone uptake ([2]; 2 h, estradiol-primed, listed as [^18 F]fluoro analogue of tamoxifen, 120 min): 0.65 % OF INJECTED DOSE/GRAM OF TIS
Blood uptake [2, 8]: 0.033 % OF INJECTED DOSE/GRAM OF TIS
Bone uptake [2, 8]: 0.644 % OF INJECTED DOSE/GRAM OF TIS
Intestine uptake [2, 8]: 0.504 % OF INJECTED DOSE/GRAM OF TIS
Kidney uptake [2, 8]: 0.530 % OF INJECTED DOSE/GRAM OF TIS
Liver uptake [2, 8]: 3.849 % OF INJECTED DOSE/GRAM OF TIS
Muscle uptake [2, 8]: 0.109 % OF INJECTED DOSE/GRAM OF TIS
Uterus uptake [2, 8]: 0.248 % OF INJECTED DOSE/GRAM OF TIS
Blood uptake [2, 9]: 0.033 % OF INJECTED DOSE/GRAM OF TISSUE WEIGHT
Bone uptake [2, 9]: 0.644 % OF INJECTED DOSE/GRAM OF TISSUE WEIGHT
Intestine uptake [2, 9]: 0.504 % OF INJECTED DOSE/GRAM OF TISSUE WEIGHT
Kidney uptake [2, 9]: 0.530 % OF INJECTED DOSE/GRAM OF TISSUE WEIGHT
Liver uptake [2, 9]: 3.849 % OF INJECTED DOSE/GRAM OF TISSUE WEIGHT
Muscle uptake [2, 9]: 0.109 % OF INJECTED DOSE/GRAM OF TISSUE WEIGHT
Uterus uptake [2, 9]: 0.248 % OF INJECTED DOSE/GRAM OF TISSUE WEIGHT
Blood uptake [2, 10]: 0.045 % OF INJECTED DOSE/GRAM OF TIS
Bone uptake [2, 10]: 0.802 % OF INJECTED DOSE/GRAM OF TIS
Intestine uptake [2, 10]: 1.101 % OF INJECTED DOSE/GRAM OF TIS
Kidney uptake [2, 10]: 0.796 % OF INJECTED DOSE/GRAM OF TIS
Liver uptake [2, 10]: 4.205 % OF INJECTED DOSE/GRAM OF TIS
Muscle uptake [2, 10]: 0.183 % OF INJECTED DOSE/GRAM OF TIS
Uterus uptake [2, 10]: 0.400 % OF INJECTED DOSE/GRAM OF TIS
Bone uptake ([2]; 4 h, estradiol-primed, listed as [^18 F]fluoro analogue of tamoxifen, 240 min): 0.80 % OF INJECTED DOSE/GRAM OF TIS
SUV (breast tumors [3]; patient 1, left axilla): 0.7
SUV (breast tumors [3]; patient 2, mediastinum): 1.8
SUV (breast tumors [3]; patient 3, left axilla): 2.6
SUV (breast tumors [3]; patient 3, right axilla): 2.2
SUV (breast tumors [3]; patient 3, right breast): 1.6
SUV (breast tumors [3]; patient 3, spine): 3.0
SUV of breast tumors (breast tumors [3]; three patients, 4 mCi): 2-5
SUV in tumor of patients responding well to tamoxifen therapy (breast tumors [3]; three patients, listed as 18 F-tamoxifen): > 2.4
SUV in tumor of patients responding well to tamoxifen therapy (breast tumors [3]; three patients, listed as [^18 F]fluorotamoxifen): more than 2.4

CCN(CC)CCOc1ccc(/C(=C(/CCC[131I])c2ccccc2)c2ccccc2)cc1 [^131 I-IODOTAMOXIFEN]
Tumor uptake ([4]; 1 h, listed as 131 I-Iodo Analogue of Tamoxifen, 60 min): 0.303 ± 0.0333 % injected dose/gram tissue
Tumor uptake ([4]; 3 h, listed as 131 I-Iodo Analogue of Tamoxifen, 180 min): 0.422 ± 0.0389 % injected dose/gram tissue
Tumor uptake ([4]; 6 h, listed as 131 I-Iodo Analogue of Tamoxifen, 360 min): 0.479 ± 0.1065 % injected dose/gram tissue
Tumor uptake ([4]; 24 h, listed as 131 I-ITX, 1440 min): 0.397±0.1231 % injected dose/gram tissue
Tumor uptake ([4]; 24 h, listed as 131 I-Iodo Analogue of Tamoxifen, 1440 min): 0.397 % injected dose/gram tissue
tissue uptake at 1 h ([4]; blood, 10 uCi/rat, 1 h, read-out: Blood uptake): 0.155 ± 0.004 %ID/g
tissue uptake at 3 h ([4]; blood, 10 uCi/rat, 3 h, read-out: Blood uptake): 0.12 ± 0.0137 %ID/g
tissue uptake at 6 h ([4]; blood, 10 uCi/rat, 6 h, read-out: Blood uptake): 0.086 ± 0.0018 %ID/g
tissue uptake at 24 h ([4]; blood, 10 uCi/rat, 24 h, read-out: Blood uptake): 0.036 ± 0.0001 %ID/g
tissue uptake at 1 h ([4]; kidney, 10 uCi/rat, 1 h, read-out: Kidney uptake): 1.3 ± 0.0839 %ID/g
tissue uptake at 3 h ([4]; kidney, 10 uCi/rat, 3 h, read-out: Kidney uptake): 1.49 ± 0.107 %ID/g
tissue uptake at 6 h ([4]; kidney, 10 uCi/rat, 6 h, read-out: Kidney uptake): 1.39 ± 0.116 %ID/g
tissue uptake at 24 h ([4]; kidney, 10 uCi/rat, 24 h, read-out: Kidney uptake): 0.573 %ID/g
tissue uptake at 1 h ([4]; liver, 10 uCi/rat, 1 h, read-out: Liver uptake): 6.746 ± 0.0546 %ID/g
tissue uptake at 3 h ([4]; liver, 10 uCi/rat, 3 h, read-out: Liver uptake): 6.73 ± 0.122 %ID/g
tissue uptake at 6 h ([4]; liver, 10 uCi/rat, 6 h, read-out: Liver uptake): 4.67 ± 0.461 %ID/g
tissue uptake at 24 h ([4]; liver, 10 uCi/rat, 24 h, read-out: Liver uptake): 2.71 %ID/g
tissue uptake at 1 h ([4]; lung, 10 uCi/rat, 1 h, read-out: Lung uptake): 2.83 ± 0.14 %ID/g
tissue uptake at 3 h ([4]; lung, 10 uCi/rat, 3 h, read-out: Lung uptake): 3.04 ± 0.411 %ID/g
tissue uptake at 6 h ([4]; lung, 10 uCi/rat, 6 h, read-out: Lung uptake): 3.06 ± 0.458 %ID/g
tissue uptake at 24 h ([4]; lung, 10 uCi/rat, 24 h, read-out: Lung uptake): 1.12 %ID/g
tissue uptake at 1 h ([4]; muscle, 10 uCi/rat, 1 h, read-out: Muscle uptake): 0.214 ± 0.0176 %ID/g
tissue uptake at 3 h ([4]; muscle, 10 uCi/rat, 3 h, read-out: Muscle uptake): 0.242 ± 0.187 %ID/g
tissue uptake at 6 h ([4]; muscle, 10 uCi/rat, 6 h, read-out: Muscle uptake): 0.253 ± 0.0208 %ID/g
tissue uptake at 24 h ([4]; muscle, 10 uCi/rat, 24 h, read-out: Muscle uptake): 0.114 %ID/g
tissue uptake at 1 h ([4]; tumor, 1 h, read-out: Tumor uptake): 0.3 ± 0.033 %ID/g
tissue uptake at 3 h ([4]; tumor, 3 h, read-out: Tumor uptake): 0.42 %ID/g
tissue uptake at 6 h ([4]; tumor, 6 h, read-out: Tumor uptake): 0.48 ± 0.107 %ID/g
tissue uptake at 24 h ([4]; tumor, 24 h, read-out: Tumor uptake): 0.4 ± 0.123 %ID/g
tissue uptake at 1 h ([4]; uterus, 10 uCi/rat, 1 h, read-out: Uterus uptake): 0.334 ± 0.0485 %ID/g
tissue uptake at 3 h ([4]; uterus, 10 uCi/rat, 3 h, read-out: Uterus uptake): 0.4 ± 0.132 %ID/g
tissue uptake at 6 h ([4]; uterus, 10 uCi/rat, 6 h, read-out: Uterus uptake): 0.559 ± 0.0982 %ID/g
tissue uptake at 24 h ([4]; uterus, 10 uCi/rat, 24 h, read-out: Uterus uptake): 0.335 %ID/g

Source: patent publication US6096874A (Board of Regents, the University of Texas System, priority 1995, dated 2000)
